# Experimental data: article PMC9222373 (2022)
# Tested on: Apt-5 (unlabelled) (DNA, aptamer) AGCAGCACAGAGGTCAGATGGGATGTGAGGTGGCTCTCGTATCTATAGATTTTGGCGAGACCTATGCGTGCTACCGTGAA
# Experiment: AuNP aggregation colorimetry
# Conditions: NaCl added after incubation (75 mM optimised); 37 °C, 1 h; 10 ng/mL toxin; 200 nM aptamer stock; insignificant colour change
row,SMILES,binding
1,CCCC[C@@H](C)[C@@H](OC(=O)C[C@@H](CC(=O)O)C(=O)O)[C@H](C[C@@H](C)C[C@H](O)CCCC[C@@H](O)C[C@H](O)[C@H](C)N)OC(=O)C[C@@H](CC(=O)O)C(=O)O,no
2,C[C@@H]1Cc2c(Cl)cc(C(=O)N[C@@H](Cc3ccccc3)C(=O)O)c(O)c2C(=O)O1,no
3,C[C@H]1CCCC(=O)CCC/C=C/c2cc(O)cc(O)c2C(=O)O1,no
